Experimental data as given in patent publication US10517889B2, “Modulators of SMAD7 expression” (Ionis Pharmaceuticals, Inc., priority 2017, dated 2019).
Strand notation (5' to 3'): a small letter for the sugar, then the base; units joined by * are phosphorothioate-linked, units joined directly phosphodiester-linked; [ ] holds rarer units or linkages, { } end groups; capitals alone tell only the bases. e = 2'-O-(2-methoxyethyl) (MOE); [5mC] = 5-methylcytosine; d = 2'-deoxy (DNA)

Tested on: human SMAD7 mRNA
Assay: Antisense inhibition of human SMAD7 mRNA expression in Hep3B cells by 5-10-5 MOE gapmers, single concentration, electroporation, RT-PCR (Example 1, Study 1 and 2)
Format: cell-based
Conditions: Study 2, electroporation with 15,000 nM antisense oligonucleotide, 5-10-5 MOE gapmers targeting SEQ ID NO: 1 and 2
Procedure, shortened: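 Readout is percent SMAD7 mRNA inhibition versus untreated cells, measured by qRT-PCR (RTS5062) and corrected for total RNA by RIBOGREEN. Oligonucleotide, 5,000 nM or 15,000 nM, was delivered by electroporation into Hep3B cells at 20,000 per well. RNA was collected about 24 h later.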

Q: Which “% Inhibition” value does the source give for “771436 (eG*eA*eG*e[5mC]*eA*dG*d[5mC]*dA*dG*d[5mC]*dT*d[5mC]*d[5mC]*dA*dG*e[5mC]*eT*eG*e[5mC]*e[5mC]; antisense) [compound 771436]” here?
A: The value was 27%.

Q: Which “% Inhibition” value does the source give for “771437 (eG*e[5mC]*e[5mC]*eT*eG*dG*dA*dG*d[5mC]*dA*dG*d[5mC]*dA*dG*d[5mC]*eT*e[5mC]*e[5mC]*eA*eG; antisense) [compound 771437]” here?
A: Its value is 0%.

Q: How did the “% Inhibition” value turn out when “771440 (e[5mC]*eG*eG*e[5mC]*eT*dG*d[5mC]*dG*d[5mC]*dA*dG*dG*d[5mC]*dT*dG*e[5mC]*eG*e[5mC]*eG*e[5mC]; antisense) [compound 771440]” was run?
A: Its value is 48%.

Q: How did the “% Inhibition” value turn out when “771445 (eA*e[5mC]*eA*eG*e[5mC]*d[5mC]*dT*d[5mC]*dT*dT*dG*dA*d[5mC]*dT*dT*e[5mC]*e[5mC]*eG*eA*eG; antisense) [compound 771445]” was run?
A: The value was 10%.

Q: “771447 (eA*eA*e[5mC]*eA*e[5mC]*dA*dG*d[5mC]*d[5mC]*dT*d[5mC]*dT*dT*dG*dA*e[5mC]*eT*eT*e[5mC]*e[5mC]; antisense) [compound 771447]” was tested. Which “% Inhibition” value did it give?
A: Its value is 19%.

Q: “771448 (eG*eA*eG*eT*e[5mC]*dG*dG*d[5mC]*dT*dA*dA*dG*dG*dT*dG*eA*eT*eG*eG*eG; antisense) [compound 771448]” was tested. Which “% Inhibition” value did it give?
A: Its value is 29%.

Q: “771452 (antisense eG*eG*eT*eA*eT*d[5mC]*dT*dG*dG*dA*dG*dT*dA*dA*dG*eG*eA*eG*eG*eG) [compound 771452]” was tested. Which “% Inhibition” value did it give?
A: The value was 55%.

Q: “771453 (antisense eA*eT*e[5mC]*eT*eG*dG*dA*d[5mC]*dA*dG*dT*d[5mC]*dT*dG*d[5mC]*eA*eG*eT*eT*eG) [compound 771453]” was tested. Which “% inhibition of SMAD7 mRNA expression” value did it give?
A: Its value is 38%.

Q: For “771463 (antisense eG*eG*e[5mC]*eT*e[5mC]*d[5mC]*dT*dG*dG*dA*d[5mC]*dA*d[5mC]*dA*dG*eT*eA*eG*eA*eG) [compound 771463]”, which “% Inhibition” value is on record?
A: Its value is 10%.

Q: With “771469 (antisense eT*eT*e[5mC]*eT*eG*d[5mC]*dA*d[5mC]*d[5mC]*dA*dG*d[5mC]*dT*dG*dA*e[5mC]*eT*e[5mC]*eT*eT) [compound 771469]” as the substance, how does the “% inhibition of SMAD7 mRNA expression” value read?
A: Its value is 13%.

Q: For “771471 (antisense eG*e[5mC]*eT*e[5mC]*e[5mC]*dG*d[5mC]*dA*d[5mC]*d[5mC]*dT*dT*d[5mC]*dT*dG*e[5mC]*eA*e[5mC]*e[5mC]*eA) [compound 771471]”, which “% inhibition of SMAD7 mRNA expression” value is on record?
A: Its value is 43%.

Q: “771472 (antisense eA*eT*eT*eT*eT*dG*d[5mC]*dT*d[5mC]*d[5mC]*dG*d[5mC]*dA*d[5mC]*d[5mC]*eT*eT*e[5mC]*eT*eG) [compound 771472]” was tested. Which “% inhibition of SMAD7 mRNA expression” value did it give?
A: The value was 0%.

Q: For “771477 (antisense eT*eG*e[5mC]*eG*eG*dT*dT*dG*dT*dA*d[5mC]*dA*d[5mC]*d[5mC]*d[5mC]*eA*e[5mC]*eA*e[5mC]*eA) [compound 771477]”, which “% inhibition of SMAD7 mRNA expression” value is on record?
A: Its value is 20%.

Q: For “771480 (antisense eA*eG*e[5mC]*e[5mC]*eT*dT*dG*dA*dT*dG*dG*dA*dG*dA*dA*eA*e[5mC]*e[5mC]*eG*eG) [compound 771480]”, which “% inhibition of SMAD7 mRNA expression” value is on record?
A: Its value is 46%.

Same assay, conditions: electroporation with 15,000 nM antisense oligonucleotide (Study 2), 5-10-5 MOE gapmers targeting SEQ ID NO: 1 and 2

Q: “771449 (eT*e[5mC]*eG*e[5mC]*eA*dG*dA*dG*dT*d[5mC]*dG*dG*d[5mC]*dT*dA*eA*eG*eG*eT*eG; antisense) [compound 771449]” was tested. Which “% Inhibition of SMAD7 mRNA” value did it give?
A: Its value is 4%.

Q: How did the “% inhibition of SMAD7 mRNA expression” value turn out when “771451 (antisense eA*eG*eA*e[5mC]*eT*d[5mC]*dT*dA*dG*dT*dT*d[5mC]*dG*d[5mC]*dA*eG*eA*eG*eT*e[5mC]) [compound 771451]” was run?
A: Its value is 15%.

Q: For “771465 (antisense eA*eT*e[5mC]*e[5mC]*eA*dG*dA*dG*dA*dG*dG*dG*d[5mC]*dT*d[5mC]*e[5mC]*eT*eG*eG*eA) [compound 771465]”, which “% Inhibition of SMAD7 mRNA” value is on record?
A: Its value is 16%.

Q: How did the “% Inhibition of SMAD7 mRNA” value turn out when “771473 (antisense eA*eG*e[5mC]*e[5mC]*eG*dA*dT*dT*dT*dT*dG*d[5mC]*dT*d[5mC]*d[5mC]*eG*e[5mC]*eA*e[5mC]*e[5mC]) [compound 771473]” was run?
A: Its value is 37%.

Same assay, conditions: electroporation, 5,000 nM, approximately 24 hours, relative to untreated control cells, gapmers targeting SEQ ID NO: 1 and 2

Q: With “771436 (eG*eA*eG*e[5mC]*eA*dG*d[5mC]*dA*dG*d[5mC]*dT*d[5mC]*d[5mC]*dA*dG*e[5mC]*eT*eG*e[5mC]*e[5mC]; antisense) [compound 771436]” as the substance, how does the “% inhibition of SMAD7 mRNA expression” value read?
A: Its value is 50%.

Q: With “771452 (antisense eG*eG*eT*eA*eT*d[5mC]*dT*dG*dG*dA*dG*dT*dA*dA*dG*eG*eA*eG*eG*eG) [compound 771452]” as the substance, how does the “% inhibition of SMAD7 mRNA expression” value read?
A: Its value is 25%.

Same assay, conditions: electroporation, 15,000 nM antisense oligonucleotide (Study 2), 5-10-5 MOE gapmers targeting SEQ ID NO: 1 and 2

Q: With “771435 (e[5mC]*eA*eG*e[5mC]*eT*dG*d[5mC]*d[5mC]*dG*d[5mC]*dT*d[5mC]*d[5mC]*dT*dT*e[5mC]*eA*eG*eT*eT; antisense) [compound 771435]” as the substance, how does the “% inhibition of SMAD7 mRNA expression” value read?
A: Its value is 29%.

Q: “771442 (e[5mC]*eT*e[5mC]*eT*eT*dG*dA*d[5mC]*dT*dT*d[5mC]*d[5mC]*dG*dA*dG*eG*eA*eA*eT*eG; antisense) [compound 771442]” was tested. Which “% inhibition of SMAD7 mRNA expression” value did it give?
A: The value was 22%.

Q: “771443 (eG*e[5mC]*e[5mC]*eT*e[5mC]*dT*dT*dG*dA*d[5mC]*dT*dT*d[5mC]*d[5mC]*dG*eA*eG*eG*eA*eA; antisense) [compound 771443]” was tested. Which “% inhibition of SMAD7 mRNA expression” value did it give?
A: The value was 30%.

Q: For “771449 (eT*e[5mC]*eG*e[5mC]*eA*dG*dA*dG*dT*d[5mC]*dG*dG*d[5mC]*dT*dA*eA*eG*eG*eT*eG; antisense) [compound 771449]”, which “% inhibition of SMAD7 mRNA expression” value is on record?
A: The value was 0%.

Q: With “771450 (antisense e[5mC]*eT*eA*eG*eT*dT*d[5mC]*dG*d[5mC]*dA*dG*dA*dG*dT*d[5mC]*eG*eG*e[5mC]*eT*eA) [compound 771450]” as the substance, how does the “% inhibition of SMAD7 mRNA expression” value read?
A: Its value is 45%.

Q: For “771465 (antisense eA*eT*e[5mC]*e[5mC]*eA*dG*dA*dG*dA*dG*dG*dG*d[5mC]*dT*d[5mC]*e[5mC]*eT*eG*eG*eA) [compound 771465]”, which “% inhibition of SMAD7 mRNA expression” value is on record?
A: Its value is 0%.

Q: “771466 (antisense eA*eA*eG*eA*eT*dA*dT*d[5mC]*d[5mC]*dA*dG*dA*dG*dA*dG*eG*eG*e[5mC]*eT*e[5mC]) [compound 771466]” was tested. Which “% inhibition of SMAD7 mRNA expression” value did it give?
A: Its value is 38%.

Q: “771467 (antisense e[5mC]*eA*eT*eA*eG*dA*dA*dG*dA*dT*dA*dT*d[5mC]*d[5mC]*dA*eG*eA*eG*eA*eG) [compound 771467]” was tested. Which “% inhibition of SMAD7 mRNA expression” value did it give?
A: The value was 11%.

Q: How did the “% inhibition of SMAD7 mRNA expression” value turn out when “771473 (antisense eA*eG*e[5mC]*e[5mC]*eG*dA*dT*dT*dT*dT*dG*d[5mC]*dT*d[5mC]*d[5mC]*eG*e[5mC]*eA*e[5mC]*e[5mC]) [compound 771473]” was run?
A: The value was 9%.

Q: Which “% inhibition of SMAD7 mRNA expression” value does the source give for “771475 (antisense e[5mC]*eG*eT*e[5mC]*eA*dG*d[5mC]*dT*dG*dG*dA*dT*dG*d[5mC]*d[5mC]*eG*e[5mC]*eA*eG*e[5mC]) [compound 771475]” here?
A: Its value is 26%.

Same assay, conditions: electroporation, 15,000 nM, approximately 24 hours, relative to untreated control cells, gapmers targeting SEQ ID NO: 1 and 2

Q: For “771438 (e[5mC]*e[5mC]*eA*e[5mC]*eG*dG*d[5mC]*d[5mC]*dT*dG*dG*dA*dG*d[5mC]*dA*eG*e[5mC]*eA*eG*e[5mC]; antisense) [compound 771438]”, which “% inhibition of SMAD7 mRNA expression” value is on record?
A: Its value is 26%.

Q: Which “% inhibition of SMAD7 mRNA expression” value does the source give for “771446 (e[5mC]*eA*e[5mC]*eA*eG*d[5mC]*d[5mC]*dT*d[5mC]*dT*dT*dG*dA*d[5mC]*dT*eT*e[5mC]*e[5mC]*eG*eA; antisense) [compound 771446]” here?
A: Its value is 55%.

Q: “771462 (antisense e[5mC]*eT*eG*eG*eA*d[5mC]*dA*d[5mC]*dA*dG*dT*dA*dG*dA*dG*e[5mC]*e[5mC]*eT*e[5mC]*e[5mC]) [compound 771462]” was tested. Which “% inhibition of SMAD7 mRNA expression” value did it give?
A: The value was 31%.

Q: How did the “% inhibition of SMAD7 mRNA expression” value turn out when “771470 (antisense eG*e[5mC]*eA*e[5mC]*e[5mC]*dT*dT*d[5mC]*dT*dG*d[5mC]*dA*d[5mC]*d[5mC]*dA*eG*e[5mC]*eT*eG*eA) [compound 771470]” was run?
A: The value was 56%.

Q: With “771478 (antisense e[5mC]*eA*e[5mC]*e[5mC]*eT*dT*dG*dT*dG*dT*dA*d[5mC]*d[5mC]*dA*dA*e[5mC]*eA*eG*e[5mC]*eG) [compound 771478]” as the substance, how does the “% inhibition of SMAD7 mRNA expression” value read?
A: The value was 53%.
